Test results taken from patent publication US20220298135A1, “5-HETEROARYL-PYRIDIN-2-AMINE COMPOUNDS AS NEUROPEPTIDE FF RECEPTOR ANTAGONISTS” (Domain Therapeutics, priority 2019, published 2022).

Key:
[1] = target: T1, human NPFFR1 (hNPFFR1) receptor (Homo sapiens, UniProt Q9GZQ6); assay: Human NPFFR1 evaluation using BRET biosensors (antagonist IC50); assay type: cell-based; conditions: hNPFFR1 transiently over-expressed in HEK-293 T cells; BRET signal; stimulation by EC80 RFRP-3
T1 construct: expressed in transfected cells; host or cells: HEK-293 T cells, transient co-transfection with polyethylenimine
T1 sequence (Q9GZQ6 whole entry): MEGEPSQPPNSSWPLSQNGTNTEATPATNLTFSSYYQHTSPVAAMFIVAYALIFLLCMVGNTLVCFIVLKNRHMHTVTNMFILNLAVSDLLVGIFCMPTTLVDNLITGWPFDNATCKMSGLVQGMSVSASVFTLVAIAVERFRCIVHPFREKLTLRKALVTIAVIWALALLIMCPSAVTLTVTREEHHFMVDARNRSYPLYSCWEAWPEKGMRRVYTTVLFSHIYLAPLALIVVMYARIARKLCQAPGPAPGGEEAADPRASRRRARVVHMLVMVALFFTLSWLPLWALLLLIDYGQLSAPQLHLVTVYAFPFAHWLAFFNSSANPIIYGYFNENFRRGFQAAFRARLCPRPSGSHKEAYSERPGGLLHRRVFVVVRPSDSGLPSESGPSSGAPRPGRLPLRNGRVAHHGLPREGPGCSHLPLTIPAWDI
In short: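 HEK-293T cells co-transfected with receptor, GαoB and Gi-effector BRET biosensor pair, assayed 48 h later. Compound 10 min, then EC80 RFRP-3 with 10 min luminescence read; IC50 from 20-concentration variable-slope fit, duplicate, two independent experiments.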

[2] = test system: morphine-induced hyperalgesia; assay: Morphine-induced hyperalgesia model in the mouse (tail immersion test); assay type: in vivo; conditions: 10 mg/kg s.c.; morphine 10 mg/kg s.c. daily during 8 days; male C57/B16N mice; tail immersion test 47° C.
Experimental: This method, which detects opioid-induced hyperalgesia, follows those well-known by one skilled in the art and described in the literature (Elhabazi K et al., J Vis Exp. 2014; (89):e51264). The procedure applied to the compounds of the invention is as follows:
Nociceptive thresholds are assessed using the tail immersion test (TIT). After TIT, mice are treated daily during 8 consecutive days with morphine (10 mg/kg, sub-cutaneous s.c.) +/− tested compounds (10 mg/kg, s.c.) 20 min before morphine injection for example 31 and 32 and twice a day for examples 56 and 143 (20 min before morphine injection, and in the afternoon).
Mice used were male C57/B16N 8 weeks old at the beginning of the experiment. During TIT the tail of the animal is immersed two-thirds in a water bath at 47° C. and the withdrawal latency is recorded in seconds. The cutoff is 25 seconds, to avoid tissue damage. After TIT mice received an injection depending on their group then are replaced to their home cages.
FIGS. 1A and 1B show the mean time of tail withdrawal latency in each group of animals. The anti-hyperalgesia effect of the tested compounds was compared to vehicle-treated group using ANOVA test followed by the Bonferroni's test.

[3] = test system: hyperalgesia induced by the repeated administration of opiate analgesics; conditions: administered in vivo in the rat; cited from earlier work

Compound	IC50 [1] [µM]	melting point [°C]	blockade of morphine-induced hyperalgesia (tail withdrawal latency) [2]	antihyperalgesic activity [3]
CCc1nc(N)ccc1-c1c(F)ccc2cc(F)cnc12.Cl [Example 143, 5-(3,7-difluoroquinolin-8-yl)-6-ethylpyridin-2-amine]	< 0.1	245 to 250	significant blockade of morphine-induced hyperalgesia	–
Cl.Nc1ccc(-c2cccc3ccc(=O)[nH]c23)c(N)n1 [Example 56, 8-(2,6-diaminopyridin-3-yl)quinolin-2(1H)-one]	< 0.1	> 250	significant blockade of morphine-induced hyperalgesia	–
Na-adamantan-1-yl-L-Arg-L-Phe-NH2 acetate [RF9]	–	–	–	antihyperalgesic activity
CCc1nc(N)ccc1-c1cccc2ccc(C(=O)N(CC)C3CCCCC3)nc12.Cl [Example 168, 8-(6-amino-2-ethylpyridin-3-yl)-N-cyclohexyl-N-ethylquinoline-2-carboxamide]	< 0.1	142 to 148	–	–
Cl.Nc1ccc(-c2cccc3[nH]ccc23)c(N)n1 [Example 24, 3-(1H-Indol-4-yl)pyridine-2,6-diamine]	0.1 to 1	150 to 154	–	–
Nc1ccc(-c2cccc3ncccc23)c(N)n1 [Example 34, 3-Quinolin-5-yl-pyridine-2,6-diamine]	0.1 to 1	> 250	–	–
Cl.Nc1ccc(-c2cccc3ccncc23)c(N)n1 [Example 32, 3-Isoquinolin-8-yl-pyridine-2,6-diamine]	< 0.1	77 to 88	–	–
CC(C)Cc1nc(N)ccc1-c1cccc2cccnc12.Cl [Example 67, 6-isobutyl-5-(quinolin-8-yl)pyridin-2-amine]	< 0.1	100 to 140	–	–
CCc1nc(N)ccc1-c1c(F)ccc2ccc(N3CCCCCC3)nc12.Cl [Example 137, 5-(2-(azepan-1-yl)-7-fluoroquinolin-8-yl)-6-ethylpyridin-2-amine]	< 0.1	110 to 145	–	–
CCc1nc(N)ccc1-c1cccc2ccc(C3CCCCC3)nc12.Cl [Example 118, 5-(2-cyclohexylquinolin-8-yl)-6-ethylpyridin-2-amine]	< 0.1	137 to 142	–	–
CCc1nc(N)ccc1-c1c(F)ccc2ccc(C)nc12.Cl [Example 76, 6-ethyl-5-(7-fluoro-2-methylquinolin-8-yl)pyridin-2-amine]	< 0.1	95 to 120	–	–
CCc1nc(N)ccc1-c1c(F)ccc2cc(-c3ccccc3)cnc12.Cl [Example 107, 6-ethyl-5-(7-fluoro-3-phenylquinolin-8-yl)pyridin-2-amine]	0.1 to 1	> 250	–	–
CCc1nc(N)ccc1-c1cccc2ccc(C(=O)N(CC)C(C)C)nc12.Cl [Example 170, 8-(6-amino-2-ethylpyridin-3-yl)-N-ethyl-N-isopropylquinoline-2-carboxamide]	< 0.1	121 to 125	–	–
CCCc1nc(N)ccc1-c1csc2ccccc12.Cl [Example 7, 5-Benzo[b]thiophen-3-yl-6-propyl-pyridin-2-ylamine]	0.1 to 1	175 to 190	–	–
Cl.Nc1ccc(-c2cccc3ccoc23)c(N)n1 [Example 50, 3-(benzofuran-7-yl)pyridine-2,6-diamine]	0.1 to 1	> 250	–	–
CCc1nc(N)ccc1-c1cccc2c(C)ccnc12.Cl [Example 91, 6-ethyl-5-(4-methylquinolin-8-yl)pyridin-2-amine]	0.1 to 1	> 250	–	–
Cl.Nc1ccc(-c2cccc3cccnc23)c(F)n1 [Example 2, 6-Fluoro-5-quinolin-8-yl-pyridin-2-ylamine]	> 1	> 250	–	–
CCc1nc(N)ccc1-c1cccc2cc(F)cnc12.Cl [Example 97, 6-ethyl-5-(3-fluoroquinolin-8-yl)pyridin-2-amine]	< 0.1	210 to 245	–	–
CCc1nc(N)ccc1-c1cccc2ccc(C(=O)NC3CCOCC3)nc12.Cl [Example 173, 8-(6-amino-2-ethylpyridin-3-yl)-N-(tetrahydro-2H-pyran-4-yl)quinoline-2-carboxamide]	< 0.1	112 to 125	–	–
CCc1nc(N)ccc1-c1ccccc1-c1ccc(F)nc1.Cl [Example 87, 6-ethyl-5-(2-(6-fluoropyridin-3-yl)phenyl)pyridin-2-amine]	0.1 to 1	> 250	–	–
CCc1nc(N)ccc1-c1cccc2ccc(N)nc12.Cl.Cl [Example 92, 8-(6-amino-2-ethylpyridin-3-yl)quinolin-2-amine]	0.1 to 1	200 to 250	–	–
CCc1nc(N)ccc1-c1cc(F)ccc1-c1ccc(N2CCOCC2)nc1.Cl [Example 83, 6-ethyl-5-(5-fluoro-2-(6-morpholinopyridin-3-yl)phenyl)pyridin-2-amine]	0.1 to 1	85 to 100	–	–
Cl.Nc1ccc(-c2cccc3cc(F)cnc23)c(N)n1 [Example 58, 3-(3-fluoroquinolin-8-yl)pyridine-2,6-diamine]	< 0.1	114 to 116	–	–
CCc1nc(N)ccc1-c1ccc(C(F)(F)F)c2cccnc12.Cl [Example 75, 6-ethyl-5-(5-(trifluoromethyl)quinolin-8-yl)pyridin-2-amine]	> 1	120 to 137	–	–
